Experimental data published in patent US12280087B2, “Composition comprising self-assembling peptides for use in treatment of gingivitis, periodontitis and/or peri-implantitis” (Credentis AG, priority 2016, dated 2025).
Where no end group is shown, it is not given here. [ ]: non-standard residue; d: D form. Orn = NCCC[C@H](N)C(=O)O

Legend:
[1] = Self-assembly at neutral pH, visual appearance; format: physicochemical; conditions: 1 part RADA16 solution (1 wt % in water) added to 1 part DMEM, neutral pH 7
P. gingivalis = assay: Release of antibiotics from self-assembling peptide gels, bacterial growth by turbidity OD600; format: cell-based; conditions: antibiotic 150 mg/ml in SAP gels 15 mg/ml (P11-4, P11-13/14, P11-28/29); OD600 normalized to gel without antibiotic; over 120 hours
Procedure: (§1) FIG. 1: Bacterial density after release of antibiotics (150 mg/ml) from self-assembling peptide gels (15 mg/ml), and the impact thereof to the growth of P. gingivalis (A-C) and S. sanguinis (D-F). Circles: metronidazol, stars: tetracycline, triangle: ciprofloxacin, squares: doxycycline hyclate; control: gel without API
(§2) Hydrogels comprising self-assembling peptides with (150 mg/ml) and without antibiotics were formed by dissolving the respective peptides at a concentration of 15 mg/ml or equimolar for combination SAP in a concentration of −10 mg*ml-1 as follows:
(§3) For the gels formed by peptides P11-13 and P11-14: or for P11-28 and P11-29, equimolar solutions of peptides were prepared in a well plate, and pH corrected to physiological conditions, resulting in a gel.
(§4) Furthermore 100 uL/well of a defined anaerobic P. gingivalis or aerobic S. anguines bacterial culture (10^7 CFU/ml e.g. 990 μl BHI medium, 10 μl 10^8 CFU/ml bacteria suspension) were added onto the gels. Impact on growth was assessed by measuring turbidity at OD600 nm. Data obtained with antibiotics were normalized to control (gel+bacteria+medium without antibiotics) to analyse the relative bacterial density. 50 μl/well of medium were added every second day.

S. sanguinis = assay: as above; format: cell-based; conditions: antibiotic 150 mg/ml in SAP gels 15 mg/ml (P11-4, P11-13/14, P11-28/29); OD600 normalized to gel without antibiotic; over 120 hours
Procedure: as §1, §2, §3, §4

[2] = tested on: SAOS-2 cells (Sarcoma osteogenic); assay: Cell viability on SAP hydrogels compared to Emdogain (PrestoBlue); format: cell-based
Procedure: (§5) Left column 15 mg/ml SAP, middle column: 20 mg/ml SAP, right column 30 mg/ml SAP for each SAP, for Emdogain®, the concentration is constant at 30 mg/ml, and the three columns show 24, 48 and 96 h administration. […] Collagen (1.5 mg/ml) was used as a test system control. Cell proliferation was measured by the metabolic conversion of PrestoBlue viability reagent. Data were normalized in respect to values measured at day 1.
(§6) Proliferation of hPDLF (periodontal ligament fibroblasts) and SAOS-2 (Sarcoma osteogenic) cells on self-assembling peptides (P11-4, P11-8, P11-13 and P11-14, 15 mg/ml SAP, 20 mg/ml SAP, 30 mg/ml SAP respectively) was compared to the current gold standard Emdogain® and/or collagen after 24, 48 and 96 h. For Emdogain®, the concentration is constant at 30 mg/ml. Viability was measured by PrestoBlue® Cell Viability Reagent A13261.

[3] = tested on: hPDLF cells (human periodontal ligament fibroblasts); assay: as above; format: cell-based; conditions: all concentrations tested (15, 20, 30 mg/ml SAP); 24, 48, 96 h; Emdogain 30 mg/ml
Procedure: as §5, §6

PDLF cells = assay: Stability of SAP matrices in contact with PDLF cells or medium (peptide in supernatant, UV-spectroscopy); format: cell-based; conditions: 20 mg/ml P11-4, 15 mg/ml others; 2000 PDLF cells/well or medium; 24 h
Procedure: Different SAP hydrogels or matrices (20 mg/ml for P11-4; 15 mg/ml for […]) were contacted with 2000 PDLF cells/well or medium. Degradation was measured after 24 h by detection of peptide concentration in the supernatant by UV-spectroscopy. No significant effect of the cells was seen.

[4] = tested on: periodontal ligament fibroblasts (PDLF); assay: In vitro periodontal pocket model, migration of PDLF out of donor compartment; format: cell-based, human; conditions: P11-4 20 mg/ml, all others 15 mg/ml
Procedure: FIG. 6: Cell migration of a 15 mg/ml P11-4 gel on a periodontal ligament model after 8 days of incubation. Human Periodontal Ligament cells were placed in a cell pool (A) and the SAP gel (C) placed on the human dentin (B). The cell/SAP-gel/dentin was then incubated for 8 days and visually assessed resulting in migration of up to 5 mm. Scale bar: 1 mm
An in vitro model of a periodontal pocket (Meyer et al., 2016) was used to assess the migration distance of periodontal ligament fibroblasts (PDLF) out of the donor compartment. In brief, to determine early processes of tissue healing, three endpoints were investigated: Adhesion, proliferation and migration of human primary periodontal ligament fibroblasts (PDLF, ScienCell). In order to mimic the in vivo conditions as close as possible, pure bovine dentin surface served as underlying structure. Adhesion and proliferation of PDLF was assessed in a time dependent manner using ATP viability Kit (Promega). Visualization of the cells on the matrix was realized by SEM. For evaluation of cell adhesion and proliferation, Emdogain® (Straumann) was used as a positive control, as it has already proven its efficacy to promote periodontal regeneration in vivo. […]
PDLF cells were allowed to migrate in different SAP or collagen hydrogels (P11-4: 20 mg/ml; all others 15 mg/ml), as explained in Example L. Migration distances were analyzed after 4 and 8 days. […]

[5] = Mechanical properties (G′) of SAP gels in different ions and buffer systems; format: physicochemical
Procedure: FIG. 5: Mechanical properties are dependent on the presence of different ions and buffer systems. […] Since NO3− are monovalent ions, and ionic strength of the solution was below 130 mM, P11-8 self-assembling was slowed down. On the other hand self-assembling kinetic of P11-8 with DMEM and NaCl solution is very similar.

RADA16
self-assembly [1]: No self-assembling is visible

Cc1ncc([N+](=O)[O-])n1CCO [metronidazole]
impact of antibiotic released from SAP gel on bacterial growth (relative bacterial density) (P. gingivalis): low effectivity in most systems at this concentration | impact of antibiotic released from SAP gel on bacterial growth (relative bacterial density) (S. sanguinis): low effectivity in most systems at this concentration

QQRFOWOFEQQ (QQRF[Orn]W[Orn]FEQQ) [P11-8, self-assembling peptide]
cell viability compared to Emdogain ([2]; 30 mg/ml SAP): strongly increased | cell viability compared to Emdogain ([2]; the other concentrations (15, 20 mg/ml SAP)): slightly increased or about equal | cell viability compared to Emdogain [3]: increased cell viability of hPDLF cells compared to Emdogain® | degradation (peptide concentration in the supernatant) (PDLF cells): degraded slightly more than the other SAP | homogenous migration of PDLF cells, visually [4]: most obvious | migration distance of PDLF cells compared to collagen ([4]; after 4 days): slightly increased compared to collagen | storage modulus G′ / self-assembling kinetic of gel ([5]; DMEM pH 7.4 versus Tris-NaCl): very similar | storage modulus G′ of gel ([5]; artificial saliva (Tris 120 mM, Ca(NO3) 4 mM, KH2PO4 2.4 mM, pH 7.2) versus Tris-NaCl, DMEM, Tris MgSO4): lowest storage modulus was achieved with artificial saliva
